Measured values taken from the supplement of paper PMC13380429.

What was measured:
Conditions in all cases: 72 h
U2OS [1] = experiment: drug sensitivity score (DSS) for viability; higher = more toxic; extreme values may be limits of the assay
Vero E6 [2] = experiment: as above
Calu-3 [3] = experiment: as above
HepG2 [4] = experiment: as above
U2OS [5] = experiment: cell viability relative to DMSO; higher = less toxic
Vero E6 [6] = experiment: as above
Calu-3 [7] = experiment: as above
HepG2 [8] = experiment: as above
U2OS [9] = experiment: relative viability EC50 (midpoint between 100% and the lowest measured viability); higher = less toxic
Vero E6 [10] = experiment: as above
Calu-3 [11] = experiment: as above
HepG2 [12] = experiment: as above
Caco-2 [13] = experiment: drug sensitivity score (DSS) for viability; higher = more toxic; extreme values may be limits of the assay
Caco-2 [14] = experiment: cell viability relative to DMSO; higher = less toxic

Structure (SMILES)	drug sensitivity score (U2OS [1])	drug sensitivity score (Vero E6 [2])	drug sensitivity score (Calu-3 [3])	drug sensitivity score (HepG2 [4])	cell viability (U2OS [5]; 1 nM) [%]	cell viability (U2OS [5]; 10 nM) [%]	cell viability (U2OS [5]; 100 nM) [%]	cell viability (U2OS [5]; 1000 nM) [%]	cell viability (U2OS [5]; 10000 nM) [%]	cell viability (Vero E6 [6]; 1 nM) [%]	cell viability (Vero E6 [6]; 10 nM) [%]	cell viability (Vero E6 [6]; 100 nM) [%]	cell viability (Vero E6 [6]; 1000 nM) [%]	cell viability (Vero E6 [6]; 10000 nM) [%]	cell viability (Calu-3 [7]; 1 nM) [%]	cell viability (Calu-3 [7]; 10 nM) [%]	cell viability (Calu-3 [7]; 100 nM) [%]	cell viability (Calu-3 [7]; 1000 nM) [%]	cell viability (Calu-3 [7]; 10000 nM) [%]	cell viability (HepG2 [8]; 1 nM) [%]	cell viability (HepG2 [8]; 10 nM) [%]	cell viability (HepG2 [8]; 100 nM) [%]	cell viability (HepG2 [8]; 1000 nM) [%]	cell viability (HepG2 [8]; 10000 nM) [%]	relative viability EC50 (U2OS [9]) [µM]	relative viability EC50 (Vero E6 [10]) [µM]	relative viability EC50 (Calu-3 [11]) [µM]	relative viability EC50 (HepG2 [12]) [µM]	drug sensitivity score (Caco-2 [13])	cell viability (Caco-2 [14]; 1 nM) [%]	cell viability (Caco-2 [14]; 10 nM) [%]	cell viability (Caco-2 [14]; 100 nM) [%]	cell viability (Caco-2 [14]; 1000 nM) [%]	cell viability (Caco-2 [14]; 10000 nM) [%]
CC(C)(C)NC(=O)[C@@H]1CN(Cc2cccnc2)CCN1C[C@@H](O)C[C@@H](Cc1ccccc1)C(=O)N[C@H]1c2ccccc2C[C@H]1O [indinavir]	0	0	0	1.4	98.4	98.2	92.5	103	93.5	117	78	97.6	104	89.9	97	107	98.4	102	97.9	99.4	88.7	109	93.3	79.8	> 10	> 10	> 10	> 10	–	–	–	–	–	–
COc1ccccc1OCCNCC(O)COc1cccc2[nH]c3ccccc3c12 (configuration not stated) [carvedilol]	0	0	0	0.1	96.4	100	103	93.1	92.3	100	102	94.2	107	94.7	97	92.2	102	89.2	97.4	99.3	108	88.7	100	86.6	> 10	> 10	> 10	> 10	–	–	–	–	–	–
CN1C(=O)CC[C@H]1c1cccnc1 [cotinine]	0	0	–	0	94.7	97.2	92.9	95.7	102	95.9	92.8	94	95.7	106	–	–	–	–	–	104	99.4	106	105	96.2	> 10	> 10	–	> 10	5.4	71.1	74.2	84.3	83	106
CC1(C)CC(Oc2ccc(-c3ccc(-c4cn[nH]c4)cc3O)nn2)CC(C)(C)N1 [LMI070]	6.2	11.5	2.9	10.7	96.4	102	103	93.5	6.6	101	102	104	48.5	5.1	96.7	97.1	92.7	74.5	85.4	107	104	110	51.8	12.4	2.6	0.935	–	0.926	2	95.1	108	106	94.6	72.5
O=C(/C=C/C=C/c1ccc2c(c1)OCO2)N1CCCCC1 [piperine]	0	0	0	0	95.1	97.6	91.2	102	97.8	108	102	109	92.5	93.2	92.4	103	101	106	90.1	93.7	91.8	86.7	84.6	95.9	> 10	> 10	> 10	> 10	1.6	94.4	106	96.6	97.4	70.9
NC1(C(=O)N[C@@H](CCO)c2ccc(Cl)cc2)CCN(c2ncnc3[nH]ccc23)CC1 [AZD5363]	3.6	0	2.5	3	97.4	94.7	92.5	90.9	57.5	98.7	99.9	96.4	94.8	90.8	113	101	102	85.6	75.6	99.3	101	93.8	84.8	66.6	–	> 10	> 10	–	5.3	100	102	93.3	74.8	54.6
